Results taken from ChEMBL document CHEMBL1201862, “PubChem BioAssay data set” (2004).
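Five concentrations, 48 hours, 96-well plates. At the GI50, growth is halved.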 Activity calls are given as the source filed them. No stated cut-off is given here; in the data, active = GI50 up to about 1.1 µM and inactive = higher.

How the values were obtained:
Test in all cases: NCI-60 cell line screen, 48 h
OVCAR-3 = test system: OVCAR-3
RXF 393 = test system: RXF 393
SF-268 = test system: SF-268
HL-60 = test system: HL-60
SW-620 = test system: SW-620
MOLT-4 = test system: MOLT-4
T47D = test system: T47D
HT-29 = test system: HT-29
TK-10 = test system: TK-10
MDA-MB-231 = test system: MDA-MB-231
LOX IMVI = test system: LOX IMVI
SNB-19 = test system: SNB-19
MDA-N = test system: MDA-N
UACC-62 = test system: UACC-62
SF-295 = test system: SF-295
NCI-H226 = test system: NCI-H226
SR = test system: SR

| Structure (SMILES) | GI50 (OVCAR-3) | GI50 (RXF 393) | GI50 (SF-268) | GI50 (HL-60) | GI50 (SW-620) | GI50 (MOLT-4) | GI50 (T47D) | GI50 (HT-29) | GI50 (TK-10) | GI50 (MDA-MB-231) | GI50 (LOX IMVI) | GI50 (SNB-19) | GI50 (MDA-N) | GI50 (UACC-62) | GI50 (SF-295) | GI50 (NCI-H226) | GI50 (SR) |
| --- | --- | --- | --- | --- | --- | --- | --- | --- | --- | --- | --- | --- | --- | --- | --- | --- | --- |
| COC(=O)c1cn(CC(O)CCl)nn1 (stereo unspecified) | > 100 µM (inactive) | > 100 µM (inactive) | > 100 µM (inactive) | > 10 µM (inactive) | > 100 µM (inactive) | > 100 µM (inactive) | > 100 µM (inactive) | > 100 µM (inactive) | > 100 µM (inactive) | > 100 µM (inactive) | > 100 µM (inactive) | > 100 µM (inactive) | > 100 µM (inactive) |  |  |  |  |
| CC(=O)Oc1ccccc1C(=O)Nc1ncc([N+](=O)[O-])s1 [NITAZOXANIDE] | 5.71 µM (inactive) | 4.42 µM (inactive) | 14.9 µM (inactive) |  | 33.1 µM (inactive) | > 100 µM (inactive) | 13.7 µM (inactive) | 15.5 µM (inactive) | 16.1 µM (inactive) | 21.8 µM (inactive) | 21.8 µM (inactive) | 17.9 µM (inactive) | 27.3 µM (inactive) | 4.33 µM (inactive) | 9.91 µM (inactive) | 8.83 µM (inactive) |  |
| Cc1cc(C)n(C(=C(C(Cl)=C(Cl)Cl)[N+](=O)[O-])n2nc(C)cc2C)n1 | 3.08 µM (inactive) | 3.79 µM (inactive) | 4.23 µM (inactive) | 1.91 µM (inactive) | 3.7 µM (inactive) | 2.37 µM (inactive) | 4.05 µM (inactive) | 3.5 µM (inactive) | 3.39 µM (inactive) | 7.41 µM (inactive) | 2.1 µM (inactive) | 4.81 µM (inactive) | 4.06 µM (inactive) | 4.06 µM (inactive) | 3.85 µM (inactive) | 5.66 µM (inactive) |  |
| COc1ccc(N2C(=O)C3c4[nH]c5ccc(C)cc5c4C4CCC(c5ccccc5)CC4C3C2=O)cc1 (stereo unspecified) | > 100 µM (inactive) | 12.6 µM (inactive) | 11.8 µM (inactive) | 12.8 µM (inactive) | > 100 µM (inactive) | 41.2 µM (inactive) | > 100 µM (inactive) | > 100 µM (inactive) | 28.6 µM (inactive) | 8.41 µM (inactive) | > 57.3 µM (inactive) | 14.3 µM (inactive) |  | 22.6 µM (inactive) | 20.6 µM (inactive) | > 100 µM (inactive) | 5.41 µM (inactive) |
| O=C(N1CCOCC1)C1(c2ccccc2)CCNCC1 | > 100 µM (inactive) | > 100 µM (inactive) | > 100 µM (inactive) |  | > 100 µM (inactive) | > 100 µM (inactive) | > 100 µM (inactive) | > 100 µM (inactive) | > 100 µM (inactive) | > 100 µM (inactive) | > 100 µM (inactive) | > 100 µM (inactive) | > 100 µM (inactive) | > 100 µM (inactive) | > 100 µM (inactive) | > 100 µM (inactive) | > 100 µM (inactive) |
| CN(C)CCCn1c(-c2cc(C(C)(C)C)c(O)c(C(C)(C)C)c2)cs/c1=N\c1ccccc1 | 1.61 µM (inactive) | 2.17 µM (inactive) | 1.85 µM (inactive) | 0.1 µM (active) | 76.6 µM (inactive) | 0.131 µM (active) |  |  | 1.95 µM (inactive) | 2.34 µM (inactive) |  | 2.14 µM (inactive) |  | 2.3 µM (inactive) | 1.79 µM (inactive) | 1.98 µM (inactive) |  |
| CCCNC(=S)N/C=C1/C(=O)Oc2ccccc2C1=O | > 100 µM (inactive) | 60.4 µM (inactive) | > 100 µM (inactive) | 13.6 µM (inactive) | > 100 µM (inactive) | > 100 µM (inactive) |  | > 100 µM (inactive) | > 100 µM (inactive) | > 100 µM (inactive) | > 100 µM (inactive) | > 100 µM (inactive) | > 100 µM (inactive) | 92 µM (inactive) | > 100 µM (inactive) | > 100 µM (inactive) | > 100 µM (inactive) |
| CC(=O)OC(OC(C)=O)n1cc(C=O)c2ccccc21 | > 100 µM (inactive) |  |  | > 100 µM (inactive) | > 100 µM (inactive) | > 100 µM (inactive) | > 100 µM (inactive) | > 100 µM (inactive) | > 100 µM (inactive) | > 100 µM (inactive) | > 100 µM (inactive) | > 100 µM (inactive) |  |  | > 100 µM (inactive) | > 100 µM (inactive) | > 100 µM (inactive) |
| CN(/N=C1\C(=O)Nc2ccccc21)c1ccccc1 | 33.7 µM (inactive) |  | 43.2 µM (inactive) | 56.5 µM (inactive) | > 100 µM (inactive) | 45.2 µM (inactive) | 34.7 µM (inactive) | 54.3 µM (inactive) | 69.2 µM (inactive) | 9.4 µM (inactive) | > 100 µM (inactive) | > 100 µM (inactive) | 40.6 µM (inactive) | > 100 µM (inactive) | 40.7 µM (inactive) | > 100 µM (inactive) | 94 µM (inactive) |
| CCOC(=O)CCC(C(=O)OCC)n1nc2ccc(Nc3c(C)[n+]([O-])c4cc(Cl)ccc4[n+]3[O-])cc2n1 (stereo unspecified) | > 100 µM (inactive) | 30.8 µM (inactive) | 39.1 µM (inactive) | 96.8 µM (inactive) | > 100 µM (inactive) | 32.3 µM (inactive) | 32.9 µM (inactive) | 64.9 µM (inactive) | > 100 µM (inactive) |  | 58.3 µM (inactive) | > 100 µM (inactive) | 98.4 µM (inactive) | 66.1 µM (inactive) | 82.4 µM (inactive) | 62.4 µM (inactive) | 10.1 µM (inactive) |
| [O-][n+]1onc(-c2ccccc2)c1-c1no[n+]([O-])c1-c1c(-c2ccccc2)no[n+]1[O-] | 5.71 µM (inactive) | 3.35 µM (inactive) | 12.6 µM (inactive) | 2.43 µM (inactive) | 4.1 µM (inactive) | 3.56 µM (inactive) |  | 3.62 µM (inactive) | 44.5 µM (inactive) | 15.8 µM (inactive) | 2.82 µM (inactive) | 27 µM (inactive) | 2.58 µM (inactive) | 12.6 µM (inactive) | 24.8 µM (inactive) | 15.2 µM (inactive) | 2.7 µM (inactive) |
| COc1cc(/C=C/C(=O)OC[C@]23O[C@H]2[C@@H](OC2OC(C)C(O)C(O)C2O)C2C=CO[C@@H](OC4OC(CO)C(O)C(O)C4O)C23)ccc1O (stereo partly specified) | > 100 µM (inactive) |  | > 100 µM (inactive) | > 100 µM (inactive) | > 100 µM (inactive) | > 100 µM (inactive) | > 100 µM (inactive) | > 100 µM (inactive) | > 100 µM (inactive) | > 100 µM (inactive) | > 100 µM (inactive) | > 100 µM (inactive) | > 100 µM (inactive) | > 100 µM (inactive) | > 100 µM (inactive) | > 100 µM (inactive) | > 100 µM (inactive) |
| CC(=O)OCC1OC(n2c3c(c(-c4ccco4)c(C#N)c2=S)CCC3)C(OC(C)=O)C(OC(C)=O)C1OC(C)=O (stereo unspecified) | > 100 µM (inactive) | 20.2 µM (inactive) | > 100 µM (inactive) | 82.8 µM (inactive) | 55.8 µM (inactive) | 4.42 µM (inactive) |  | > 100 µM (inactive) | 69.3 µM (inactive) |  | 60.1 µM (inactive) | > 100 µM (inactive) | > 100 µM (inactive) | 42.2 µM (inactive) | > 100 µM (inactive) |  | 31.6 µM (inactive) |
| COC(=O)C(Cc1c[nH]c2ccccc12)NP(=O)(O)OCC1OC(n2ccc(N)nc2=O)C(O)C1O (stereo unspecified) | > 100 µM (inactive) |  | > 100 µM (inactive) | > 100 µM (inactive) | > 100 µM (inactive) | > 100 µM (inactive) | > 100 µM (inactive) | > 100 µM (inactive) | > 100 µM (inactive) | > 100 µM (inactive) | > 100 µM (inactive) | > 100 µM (inactive) | > 100 µM (inactive) | 85.9 µM (inactive) | > 100 µM (inactive) | > 100 µM (inactive) | 82.2 µM (inactive) |
| CC(=O)C1CC[C@@H]2[C@H](CC[C@]3(C)[C@@H](O)CC[C@@H]23)[C@H]1C(=O)O (stereo partly specified) | > 100 µM (inactive) | > 100 µM (inactive) | > 100 µM (inactive) | > 100 µM (inactive) | > 100 µM (inactive) | > 100 µM (inactive) |  | > 100 µM (inactive) | > 100 µM (inactive) | > 100 µM (inactive) |  | > 100 µM (inactive) |  | > 100 µM (inactive) | > 100 µM (inactive) |  | > 100 µM (inactive) |
| COc1ccc(/C(C#N)=C/c2ccc(OC)c(OC)c2)cc1 | > 100 µM (inactive) | > 100 µM (inactive) | > 100 µM (inactive) | > 100 µM (inactive) | > 100 µM (inactive) | > 100 µM (inactive) | 49.5 µM (inactive) | > 100 µM (inactive) | > 100 µM (inactive) | > 100 µM (inactive) | > 100 µM (inactive) | > 100 µM (inactive) | > 100 µM (inactive) | > 100 µM (inactive) | > 100 µM (inactive) | > 100 µM (inactive) |  |
| C=CCc1cccc(C(=O)/C=C(O)/C=C/c2ccccc2Cl)c1O | 16.6 µM (inactive) | 19.5 µM (inactive) | 20.5 µM (inactive) |  | 8.43 µM (inactive) | 3.96 µM (inactive) | 9.48 µM (inactive) | 9.93 µM (inactive) | 42.7 µM (inactive) | 36.7 µM (inactive) | 7.01 µM (inactive) | 21 µM (inactive) | 27.7 µM (inactive) | 13.4 µM (inactive) | 9.27 µM (inactive) | 18.8 µM (inactive) | 4.74 µM (inactive) |
| O=c1[nH]nc(Cc2ccc(Cl)cc2)n1CCO | > 100 µM (inactive) |  | > 100 µM (inactive) | > 100 µM (inactive) | > 100 µM (inactive) | > 100 µM (inactive) | > 100 µM (inactive) | > 100 µM (inactive) | > 100 µM (inactive) | > 100 µM (inactive) | > 100 µM (inactive) | > 100 µM (inactive) | > 100 µM (inactive) | > 100 µM (inactive) | > 100 µM (inactive) | > 100 µM (inactive) |  |
